Measurements taken from patent publication US20220257580A1, “TREATMENT OF C3 GLOMERULOPATHY USING A C5A INHIBITOR” (CHEMOCENTRYX, INC., priority 2020, published 2022).
“Also recorded” adds a separate entry of the source.

Tests used:
Format in all cases: in vivo, human
[1] = system: patients with C3 glomerulopathy; experiment: Phase 2 placebo-controlled study (ACCOLADE): C3G Histologic Index from kidney biopsies
Procedure: The primary objective is to evaluate the efficacy of compound 1 compared to placebo based on histologic changes in C3G pathology from kidney biopsies taken before and during treatment. Patients will then be randomized, 1:1, to receive 30 mg compound 1 twice daily or matching placebo for 26 weeks in a double-blind, placebo-controlled manner. The 26-week double-blind period will be followed by a 26-week period during which all patients will receive compound 1 treatment. Efficacy assessments include: • 1. Renal histology to determine the C3G Histologic Index (CHI) for disease activity and chronicity; • 2. eGFR calculated by the Modification of Diet in Renal Disease (MDRD) equation from serum creatinine; • 3. First morning urinary PCR; • 4. First morning urinary MCP-1:creatinine ratio; • 5. EQ-5D-5L and SF-36 v2. All renal biopsies will also be analyzed based on hematoxylin-eosin (H&E) staining, periodic acid-Schiff (PAS) staining, trichrome, and Jones methenamine silver staining. These renal biopsies will be evaluated by a central reader, blinded to treatment assignment from either slides or high-resolution electronic images. The central reader will determine the degree of disease activity and chronicity. The primary efficacy endpoint is the percent change from baseline to week 26 in the C3G Histologic Index (CHI) for disease activity. The compound 1 and placebo groups will be compared by ANCOVA with treatment group and randomization strata (C3GN or DDD, and renal transplant or not) as factors, and baseline as covariate. Point estimates and corresponding 95% confidence intervals will be estimated for the difference between the compound 1 and placebo control group. Other efficacy endpoints include: • 1. The percent change from baseline in the CHI for disease chronicity over the placebo-controlled 26-week treatment period; • 2. The change and percent change from baseline in eGFR over the placebo-controlled 26-week treatment period; • 3. The percent change from baseline in urinary PCR over the placebo-controlled 26-week treatment period; • 4. The percent change from baseline in urinary MCP-1:creatinine ratio over the placebo-controlled 26-week treatment period; • 5. Change from baseline in EQ-5D-5L and SF-36 v2 (domains and component scores) over the placebo-controlled 26-week treatment period. The primary endpoint of the study was change from baseline to week 26 in the C3G Histologic Index for Disease Activity, comparing the changes in kidney histology from biopsy sections taken from patients characterized by elevated levels of C5b-9 complement markers in the blood at time of study entry (baseline).

[2] = system: patient with progressive complement 3 (C3) glomerulonephritis (recurrent C3GN in a renal transplant); experiment: Special Needs program study of compound 1 in one patient: renal allograft biopsy histology; conditions: for Endocapillary hypercellularity/total: pre-treatment 3/11; for CD68-positive cells/glomerulus: pre-treatment 11; for Immunoflourescence microscopy, IgM: pre-treatment trace
Source text: Under the Special Needs program in the United Kingdom (which is similar to a compassionate use protocol in the US), a C3 glomerulonephritis patient received treatment with the orally administered complement inhibitor compound 1, following the protocol detailed below. The patient had refractory disease despite a kidney transplant and prior treatment with the broadly immunosuppressive drugs rituximab, cyclophosphamide, mycophenolate mofetil, tacrolimus, and steroids. Renal allograft biopsies were taken pre-dose, 2 and 7 months during therapy. At the Day 1 and post-Day 1 study visits, blood and urine samples will be collected for safety, efficacy, and pharmacokinetic measurements. Physical examinations and vital signs assessments will be performed throughout the study. Concomitant medication and adverse event assessments will be made at every study visit. If at all possible, a renal biopsy will be performed after an appropriate follow-up period to assess the changes in kidney histology. Efficacy assessments include: • 1. First morning urinary PCR or ACR; • 2. eGFR by Modification of Diet in Renal Disease (MDRD) formula based on serum creatinine; • 3. Plasma and urine pharmacodynamic markers, e.g., MCP-1, C3a, C5a, properdin, and sC5b-9; • 4. Glomerular inflammation (e.g., crescents, inflammatory cell infiltrate, endocapillary proliferation) and C3 deposition in a follow-up renal biopsy sample; Renal biopsies will be analyzed by periodic acid-Schiff (PAS) staining, immunofluorescence staining for C3, C5b-9, and potentially other markers. Electron microscopy may also be performed.

[3] = system: patient with progressive complement 3 (C3) glomerulonephritis (recurrent C3GN in a renal transplant); experiment: Special Needs program study of compound 1 in one patient: eGFR and proteinuria; conditions: for eGFR decline / eGFR: eGFR 83 mL/min/1.73 m^2 14 months prior, 46 at start of treatment
Source text: Under the Special Needs program in the United Kingdom (which is similar to a compassionate use protocol in the US), a C3 glomerulonephritis patient received treatment with the orally administered complement inhibitor compound 1, following the protocol detailed below. The patient had refractory disease despite a kidney transplant and prior treatment with the broadly immunosuppressive drugs rituximab, cyclophosphamide, mycophenolate mofetil, tacrolimus, and steroids. Renal allograft biopsies were taken pre-dose, 2 and 7 months during therapy. The primary efficacy objective is to evaluate the efficacy of compound 1 based on change from baseline in eGFR (MDRD, Estimated Glomerular Filtration Rate) and proteinuria. This is a clinical study to test the safety, tolerability, and efficacy of compound 1 in a patient with recurrent […] in a renal transplant. The patient will have biopsy proven recurrent […] prior to start of dosing, and be deemed eligible based on the inclusion and exclusion criteria. Screening procedures will include recording of demographics, medical history, medication history, physical examination and vital signs, serum chemistry, hematology, urinalysis (including UPCR measurement), viral screening (if not performed within prior 12 weeks), and estimated glomerular filtration rate (eGFR) assessment based on serum creatinine. The baseline eGFR needs to be at least 25 mL/min/1.73 m^2 for study eligibility. On Day 1, the patient will start compound 1 treatment. Patients will take compound 1 30 mg orally twice daily for an initial period of 84 days. The patient will visit the study center on Days 1, 8, 15, 29, 57, and 85. The compound 1 dose will be taken in the morning optimally within one hour after breakfast and in the evening optimally within one hour after dinner. If the patient's clinical condition stabilizes or improves, and there are no adverse events preventing further treatment, the patient may be treated for another 84-day treatment cycle. The 84-day cycles may be repeated for a total of up to 4 cycles under this protocol. For the 84-day cycles after the first cycle, the patient will visit the study center every 4 weeks. There will be 4-week follow-up period after the patient stops the compound 1 treatment. Efficacy assessments include: • 1. First morning urinary PCR or ACR; • 2. eGFR by Modification of Diet in Renal Disease (MDRD) formula based on serum creatinine; • 3. Plasma and urine pharmacodynamic markers, e.g., MCP-1, C3a, C5a, properdin, and sC5b-9; • 4. Glomerular inflammation (e.g., crescents, inflammatory cell infiltrate, endocapillary proliferation) and C3 deposition in a follow-up renal biopsy sample;

[4] = system: patients with C3 glomerulopathy; experiment: Phase 2 placebo-controlled study (ACCOLADE): safety and tolerability; conditions: patients with C3G
Source text: The secondary objectives of this study include assessment of: • 1. The safety of compound 1 compared to placebo based on the incidence of adverse events, changes in clinical laboratory measurements, and vital signs; • 2. Changes in laboratory parameters of renal disease including estimated glomerular filtration rate (eGFR), proteinuria, and urinary excretion of monocyte chemoattractant protein-1 (MCP-1) with compound 1 compared to placebo; • 3. Health-related quality-of-life changes based on Short Form-36 version 2 (SF-36 v2) and EuroQOL-5D-5L (EQ-5D-5L) with compound 1 compared to placebo; • 4. Evaluation of the pharmacokinetic profile of compound 1 in patients with C3 glomerulopathy.
Safety assessments include adverse events, physical examination abnormalities, vital signs, and clinical laboratory tests (including blood chemistry, hematology, and urinalysis).
Safety endpoints include: • 1. Patient incidence of treatment-emergent serious adverse events, adverse events, and withdrawals due to adverse events; • 2. Change from baseline and shifts from baseline in all safety laboratory parameters; • 3. Change from baseline in vital signs.

[5] = system: patients with C3 glomerulopathy; experiment: Phase 2 placebo-controlled study (ACCOLADE): eGFR, urinary PCR, urinary MCP-1:creatinine ratio
Source text: The secondary objectives of this study include assessment of: • 1. The safety of compound 1 compared to placebo based on the incidence of adverse events, changes in clinical laboratory measurements, and vital signs; • 2. Changes in laboratory parameters of renal disease including estimated glomerular filtration rate (eGFR), proteinuria, and urinary excretion of monocyte chemoattractant protein-1 (MCP-1) with compound 1 compared to placebo; • 3. Health-related quality-of-life changes based on Short Form-36 version 2 (SF-36 v2) and EuroQOL-5D-5L (EQ-5D-5L) with compound 1 compared to placebo; • 4. Evaluation of the pharmacokinetic profile of compound 1 in patients with C3 glomerulopathy. Patients will then be randomized, 1:1, to receive 30 mg compound 1 twice daily or matching placebo for 26 weeks in a double-blind, placebo-controlled manner. The 26-week double-blind period will be followed by a 26-week period during which all patients will receive compound 1 treatment. Efficacy assessments include: • 1. Renal histology to determine the C3G Histologic Index (CHI) for disease activity and chronicity; • 2. eGFR calculated by the Modification of Diet in Renal Disease (MDRD) equation from serum creatinine; • 3. First morning urinary PCR; • 4. First morning urinary MCP-1:creatinine ratio; • 5. EQ-5D-5L and SF-36 v2. Other efficacy endpoints include: • 1. The percent change from baseline in the CHI for disease chronicity over the placebo-controlled 26-week treatment period; • 2. The change and percent change from baseline in eGFR over the placebo-controlled 26-week treatment period; • 3. The percent change from baseline in urinary PCR over the placebo-controlled 26-week treatment period; • 4. The percent change from baseline in urinary MCP-1:creatinine ratio over the placebo-controlled 26-week treatment period; • 5. Change from baseline in EQ-5D-5L and SF-36 v2 (domains and component scores) over the placebo-controlled 26-week treatment period. Continuous variables, including eGFR, urinary PCR, urinary MCP-1:creatinine ratio, EQ-5D-5L, and SF-36 v2 will be analyzed using a mixed effects model for repeated measures ([…]) with treatment group, visit, treatment-by-visit interaction, and randomization strata (C3GN or DDD, and renal transplant or not) as factors, and baseline as covariate. Patients will be considered as repeated measure units over visits. Point estimates and corresponding 95% confidence intervals will be estimated for the difference between the compound 1 group and the control group across 26 weeks using simple contrast from the model. Similar to the primary endpoint, the second 26 weeks will be compared to the first 26 weeks for the placebo group.

Structure (SMILES): Cc1ccc(NC(=O)[C@H]2CCCN(C(=O)c3c(C)cccc3F)[C@H]2c2ccc(NC3CCCC3)cc2)cc1C(F)(F)F [Compound 1, avacopan]
- C3G Index for Disease Chronicity, higher change in placebo group than avacopan ([1]; baseline to Week 26): 26 percentage point
- C3G Histologic Index for Disease Chronicity, change from baseline ([1]; baseline to Week 26, increase = worsening, placebo 58%): 32%
- C3G Histologic Index for Disease Activity (C3G Activity Score), improvement on average ([1]; baseline to week 26, all C3G subjects (elevated and normal C5b-9), placebo worsened by 26%): 6%
- C3G Activity Score, average difference between the two treatment arms ([1]; baseline to week 26, elevated C5b-9 patients, avacopan vs placebo, not statistically significant): approximately 40%
- C3G Histologic Index for Disease Activity (C3G Activity Score), improvement on average ([1]; baseline to week 26, patients with elevated C5b-9 at baseline, placebo worsened by 38%): 2%
- C3G Histologic Index for Disease Chronicity, mean change from baseline ([1]; baseline to week 26, placebo 1.6, P<0.05): 0.8
- Endocapillary hypercellularity/total ([2]; 2 months of therapy): 0/36
- CD68-positive cells/glomerulus ([2]; 2 months of therapy): 2-3
- Immunoflourescence microscopy, IgM ([2]; 2 months of therapy): neg
- Endocapillary hypercellularity/total ([2]; 7 months of therapy): 0/14
- CD68-positive cells/glomerulus ([2]; 7 months of therapy): 1-2
- Immunoflourescence microscopy, IgM ([2]; 7 months of therapy): neg
- glomerular inflammation ([2]; on-treatment biopsy compared to pre-treatment): reduced glomerular inflammation
- glomerular endocapillary proliferation / hypercellularity ([2]; on-treatment kidney biopsy compared to pre-treatment biopsy): clearance of glomerular endocapillary proliferation; also recorded: resolution of glomerular endocapillary hypercellularity; also recorded: reduction in endocapillary hypercellularity
- glomerular inflammatory macrophages ([2]; on-treatment kidney biopsy compared to pre-treatment biopsy, CD68 staining): marked decrease; also recorded: reduction in glomerular macrophages
- eGFR decline ([3]; after 1 month of treatment): attenuated
- Proteinuria drop ([3]; single C3GN patient, compound 1 30 mg orally twice daily): approximately 80%
- eGFR decline / eGFR ([3]; single C3GN patient): stabilized eGFR
- eGFR decline / eGFR ([3]; single C3GN patient, listed as compound 1): attenuated or stopped
- safety and tolerability [4]: safe and well-tolerated
- Urinary MCP-1:Creatinine Ratio Percent Change from Baseline ([5]; 26-week treatment period, placebo 1%): −12%
- Urinary Protein:Creatinine Ratio (Proteinuria) Percent Change from Baseline ([5]; 26-week treatment period, placebo −14%): −26%
- eGFR improvement from baseline ([5]; 26 weeks, subjects with eGFR <60 mL/min/1.73 m^2 at baseline, placebo 6% worsening, P=0.0199): 13%
- eGFR mean increase ([5]; 26 weeks, subjects with eGFR <60 mL/min/1.73 m^2 at baseline, placebo decrease of 1.4): about 5 mL/min/1.73 m^2
- eGFR average increase relative to placebo ([5]; after 26 weeks, subjects with eGFR <60 mL/min/1.73 m^2 at baseline): ~20%
- eGFR improvement on average from baseline ([5]; baseline to week 26, overall, placebo worsened by 6%, P=0.0221): 5%
- UPCR (proteinuria) reduction from baseline ([5]; end of 26 weeks, placebo 14%): 26%
- urinary MCP-1 creatinine ratio versus the placebo group ([5]; throughout the 26-week treatment period): consistently exhibiting lower levels
- UPCR (proteinuria) mean decrease from baseline ([5]; week 16, placebo 1% decrease, P<0.05): 35%
